Data set [1] has as its system L6 myoblasts. In words: Whole-cell current clamp recording of plasma membrane potential. It is filed as cell-based, rat. The note with it: n = 8.
For data set [2], the system named is rat L6 myoblasts. In words: Cellular oxygen consumption rate. It is filed as cell-based.
The subject of data set [3] is medium-chain acyl-CoA dehydrogenase (MCAD). Briefly: Enzyme activity of MCAD in WD-fed mice. It is filed as in vivo, mouse. The note with it: mice fed SHD865 in the WD.
The test system of data set [4] is C57BL/6J mouse tissue. Briefly: High-resolution respirometry. In kind it is in vivo, C57BL/6J mice. The note with it: 2 h after oral gavage of 30 mg/kg.
In data set [5] the test system is C57BL/6J mice fed the WD. In words: Western diet-induced adiposity reversal study. It is filed as in vivo.
Data set [6] in a line: Intrinsic clearance in human liver microsomes. It is filed as in vitro ADME. For orientation: Liver microsomes are vesicles of endoplasmic reticulum, rich in cytochrome P450 enzymes.
The nature of data set [7]: Rat pharmacokinetics and oral bioavailability. It is filed as in vivo, Sprague-Dawley rats. The note with it: Sprague-Dawley, serum.
Data set [8] in a line: Tissue concentrations at study termination. The note with it: for concentration at 6 weeks: C57BL/6J, mouse, oral, 38 mg/kg per day (0.04% w/w in diet). In kind it is in vivo, C57BL/6J mice.
Data set [9] deals with β-hydroxy-acyl-CoA dehydrogenase (HAD). In words: Enzyme activity of HAD in WD-fed mice. In kind it is in vivo, mouse. The note with it: mice fed SHD865 in the WD.
Data set [10] is described as follows: Mouse pharmacokinetics and oral bioavailability. It is filed as in vivo, C57BL/6J mice. The note with it: C57BL/6J, plasma, 10 mg/kg.
Data set [11] concerns mice. In words: Whole-body OCR by indirect calorimetry. It is filed as in vivo, mouse. The note with it: 40 mg/kg oral gavage.
Data set [12] concerns mice. In words: Dose escalation tolerability study by oral gavage. It is filed as in vivo, mouse.
The test system of data set [13] is ACC, pSer79-ACC, FAS, AMPK (pThr172). In kind it is in vivo, mouse. The note with it: mice fed SHD865 in the WD.
Data set [14] has as its system L6 cells. Briefly: Mitochondrial stress test. The note with it: drug 50 μmol/L, oligomycin 1 μmol/L.
Setting [15] is: second cohort, versus WD-fed controls, 4–5 h fasting.

The text below walks through data of publication PMC10882157 (Diabetes, 2023).

Values joined by “and” are separate entries in the source; they are usually repeats but may differ in a detail not shown here. Equal values may be shown once.

For the compound `N#CC(C#N)=NNc1ccc(OC(F)(F)F)cc1` [FCCP, carbonylcyanide p-(trifluoromethoxy)phenylhydrazone, reference compound], the plasma membrane depolarization in data set [1] (10 μmol/L) came to 4.9 ± 1.0 mV. The EC50 in data set [2] (read-out: EC50 (OCR), average values, dose response 0.4 to 50 μmol/L) is 1.2 µM.
On to `COc1nc2nc(C(F)(F)F)[nH]c2nc1Nc1ccc(OC(F)(F)F)cc1F` [SHD865, N-[2-fluoro-4-[trifluoromethoxy]phenyl]-5-methoxy-2-[trifluoromethyl]-1H-imidazo[4,5-b]pyrazine-6-amine], for which the MCAD activity result in [3] is recorded as “no treatment had any effect”. Further, the “mitochondrial activity in liver, muscle, heart, white and brown fat” value in [4] is reported as “only the liver had significantly increased mitochondrial activity”. For the same compound, in [5] (0.04% w/w in WD), the “fecal triglyceride levels compared with WD-fed mice” value was “did not alter fecal triglyceride levels”, the “postprandial plasma cholesterol compared with pretreatment” value is “significantly lowered”, the “postprandial plasma triglyceride compared with pretreatment” value is reported as “significantly lowered” and the “random-fed blood glucose compared with WD-fed controls” value is “decrease”. Moreover, in data set [5] (0.04% w/w in WD), the “random-fed insulin levels compared with WD-fed controls” value is recorded as “decrease” and the “skeletal muscle triglyceride content” value was “completely normalized”. Moreover, in data set [5] (0.04% w/w in WD (∼38 mg/kg per day), first 2 weeks of treatment), the “body weight and body fat mass composition” value was “recovered normal body weight and body fat mass composition similar to the lean chow-fed control mice”. In [5] (0.04% w/w in WD, 6 weeks), the “WD-induced fat gain (EchoMRI and terminal gonadal fat pad mass)” value is listed as “completely reversed the WD-induced fat gain”; the food intake result was “without a decrease in food intake”; the “lipid droplet accumulation in liver tissue (hematoxylin and eosin staining)” value is given as “decreased lipid droplet accumulation”; the liver cholesterol concentrations result was “lower than WD-fed control mice and similar to chow-fed mice”. Besides, the liver triglyceride levels entry in data set [5] (0.04% w/w in WD, 6 weeks) is “between those of chow-fed and WD-fed mice without being statistically different from either group”. Moreover, the “blood ALT levels” value in data set [5] (0.04% w/w in WD, 6 weeks, both cohorts) was “did not raise ALT levels”. In addition, in data set [5] (0.04% w/w in WD, after 5 weeks of treatment), the “glucose tolerance (GTT at week 9)” value was “completely reversed glucose intolerance”. Also, the “insulin levels during GTT, lower than WD-fed controls” value in data set [5] (second cohort of mice) is 20–30%. Moreover, in data set [5] (setting [15]), the “hepatic triglyceride production using poloxamer 407” value is on record as “neither experiment showed a phenotype” and the “triglyceride clearance by oral triglyceride tolerance test (OTTT)” value was “neither experiment showed a phenotype”. Moreover, the intrinsic clearance (microsomal CLint) – broadly, the capacity of the preparation to metabolise the compound, expressed as a volume cleared per time – in data set [6] was under 116 µL/min/mg. In [1] (25 μmol/L), this compound came in with a plasma membrane depolarization of 1.4 ± 0.4 mV. The half-life (in general, the time in which the quantity being followed falls by half) in data set [7] is 1.7 h. The compound further gave a concentration at 6 weeks in data set [8] (brown fat) of 18000 ng/g. The compound further displayed a concentration at 6 weeks in data set [8] (gonadal fat) of 27000 ng/g. Also, in [8] (liver), the concentration at 6 weeks is 14500 ng/g and ~34 µM. Also, the steady-state tissue distribution entry in [8] (study termination, 0.04% w/w in WD) was “primarily localized to adipose and liver tissue depots, with lesser exposure in quadriceps muscle, heart, and brain”. Further, the “decrease of HAD activity versus WD-fed control” value in [9] was 12%. In data set [10], the Cmax – broadly, the peak of the concentration-time curve – is 9.1 µM and the half-life was 1.7 h. In addition, the “time for respiration to return to normal” value in data set [11] was found to be 4 h. For the same compound, the “increase in whole-body OCR compared with vehicle” value in data set [11] (first hour after treatment) is given as “up to 26%”. Moreover, the “uncoupled respiration across concentration range” value in data set [2] is given as “maintained uncoupled respiration at a stable rate across a large concentration range”. In [2] (Fig. 1B), the “bioactive concentration range in vitro” value was over 10 µmol/L. In addition, the “increase of cellular OCR, as % of the maximal OCR induced by BAM15 and FCCP” value in data set [2] (dose response 0.4 to 50 μmol/L) is about 90%. Further, the “adverse effects after acute oral bolus” value in data set [12] (C57BL/6J mice, 1,000 mg/kg oral) is “no adverse effects”. Besides, the “behavioral signs of distress or ill thrift” value in data set [12] (mice, oral gavage 300 and 1,000 mg/kg, 24-h observation) is “no behavioral signs of distress or ill thrift were observed”. Also, the “effect on body (rectal) temperature” value in [12] (mice, oral gavage 300 and 1,000 mg/kg, 24 h) was “no effect on body temperature was detected”. Moreover, the “efficacious dose relative to dose level with no observed adverse effect” value in [12] (∼38 mg/kg per day in diet versus 1,000 mg/kg acute oral) was 27 fold. Also, in data set [13], the “ACC expression versus WD-fed control mice” value was “lower”, the “FAS expression versus WD-fed control mice” value is on record as “lower”, the “Ser79 phosphorylation of ACC” value was “trend for increased Ser79 phosphorylation of ACC” and the “phosphorylation of AMPK-Thr172” value is on record as “increased phosphorylation of AMPK-Thr172”. In addition, in [14], the “mitochondrial respiration in the presence of oligomycin” value is listed as “increase mitochondrial respiration in the presence of the ATP synthase inhibitor oligomycin” and the “spare respiratory capacity, % of BAM15-treated cells” value is reported as about 90%.
